molecular target: JAK1 (Homo sapiens (Human), UniProt P23458); experiment: Analysis of JAK1 activity inhibition ability (ADP-Glo Kinase Assay); assay type: biochemical; details: JAK1 enzyme, ADP-Glo luminescence, ATP 250 uM, IRS-itide substrate, 30° C. 40 minutes; read-out: IC50
Method in brief: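 JAK1 enzyme, IRS-itide substrate (40 ng/mL) and 250 uM ATP, both as prepared in kinase buffer (Tris-HCl pH 7.5, MgCl2, BSA, DTT), reacted with compound 40 min at 30 °C. ADP formed was detected by ADP-Glo luminescence; IC50 is the concentration giving 50% inhibition versus control.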

Sequence of JAK1 (P23458 whole entry): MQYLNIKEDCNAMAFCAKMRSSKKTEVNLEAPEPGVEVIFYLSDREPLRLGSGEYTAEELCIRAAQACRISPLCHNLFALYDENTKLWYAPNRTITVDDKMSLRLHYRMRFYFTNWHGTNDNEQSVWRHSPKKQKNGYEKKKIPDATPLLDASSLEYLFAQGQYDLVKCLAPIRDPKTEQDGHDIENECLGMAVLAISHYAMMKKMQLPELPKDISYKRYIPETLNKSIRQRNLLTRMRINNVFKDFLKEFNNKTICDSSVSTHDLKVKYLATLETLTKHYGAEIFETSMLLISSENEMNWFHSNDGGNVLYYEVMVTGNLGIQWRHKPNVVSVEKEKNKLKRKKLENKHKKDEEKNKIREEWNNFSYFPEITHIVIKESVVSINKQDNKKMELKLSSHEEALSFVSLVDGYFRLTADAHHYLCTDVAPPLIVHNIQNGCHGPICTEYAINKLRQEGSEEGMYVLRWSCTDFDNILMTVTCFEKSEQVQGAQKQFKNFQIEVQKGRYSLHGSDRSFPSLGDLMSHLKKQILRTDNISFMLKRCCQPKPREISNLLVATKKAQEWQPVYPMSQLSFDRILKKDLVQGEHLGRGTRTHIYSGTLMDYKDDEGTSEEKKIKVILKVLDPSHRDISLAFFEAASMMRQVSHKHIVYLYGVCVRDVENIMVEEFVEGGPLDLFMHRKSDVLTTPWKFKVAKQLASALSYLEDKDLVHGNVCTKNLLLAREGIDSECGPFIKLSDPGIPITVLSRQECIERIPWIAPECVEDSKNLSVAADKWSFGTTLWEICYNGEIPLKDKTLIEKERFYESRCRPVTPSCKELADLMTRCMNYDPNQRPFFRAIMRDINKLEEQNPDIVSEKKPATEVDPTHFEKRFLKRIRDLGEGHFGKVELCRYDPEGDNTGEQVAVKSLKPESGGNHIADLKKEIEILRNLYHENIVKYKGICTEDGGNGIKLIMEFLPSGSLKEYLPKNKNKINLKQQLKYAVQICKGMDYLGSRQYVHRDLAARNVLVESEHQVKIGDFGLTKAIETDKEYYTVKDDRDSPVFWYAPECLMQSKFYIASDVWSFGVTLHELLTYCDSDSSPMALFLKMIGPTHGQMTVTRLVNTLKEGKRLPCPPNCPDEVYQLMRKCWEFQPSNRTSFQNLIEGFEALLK

Going from `O=C(Nc1nc(-c2ccc(NS(=O)(=O)c3ccc(F)cc3)cc2)c2cc[nH]c2n1)C1CC1` [Example 188, N-(4-(4-((4-fluorophenyl)sulfonamido)phenyl)-7H-pyrrolo[2,3-d]pyrimidin-2-yl)cyclopropanecarboxamide] to `O=C(Nc1cc(-c2ccc(OS(=O)(=O)c3ccc(F)cc3)cc2)c2cc[nH]c2n1)C1CC1` [Example 630, 4-(6-(cyclopropanecarboxamido)-1H-pyrrolo[2,3-b]pyridin-4-yl)phenyl 4-fluorobenzenesulfonate], the IC50 rises from less than 20 nM to greater than 200 nM.

`CC1(CN2CC=C(c3cc(NC(=O)C4CC4)nc4[nH]ccc34)CC2)COC1` [Example 487, N-(4-(1-((3-methyloxetan-3-yl)methyl)-1,2,3,6-tetrahydropyridin-4-yl)-1H-pyrrolo[2,3-b]pyridin-6-yl)cyclopropanecarboxamide] and `O=C(Nc1cc(C2=CCN(CCN3CCOCC3)C2)c2cc[nH]c2n1)C1CC1` [Example 484, N-(4-(1-(2-morpholinoethyl)-2,5-dihydro-1H-pyrrol-3-yl)-1H-pyrrolo[2,3-b]pyridin-6-yl)cyclopropanecarboxamide] cannot be ordered by IC50: greater than 200 nM for the first, greater than 200 nM for the second.

Compared with `O=C(Nc1cc(-c2ccc(NC3CN(C(=O)CC(F)(F)F)C3)cc2)c2cc[nH]c2n1)C1CC1` [Example 517, N-(4-(4-((1-(3,3,3-trifluoropropanoyl)azetidin-3-yl)amino)phenyl)-1H-pyrrolo[2,3-b]pyridin-6-yl)cyclopropanecarboxamide], `O=C(Nc1cc(-c2ccc(NC3CN(C(=O)Nc4ccc(F)cc4F)C3)cc2)c2cc[nH]c2n1)C1CC1` [Example 513, 3-((4-(6-(cyclopropanecarboxamido)-1H-pyrrolo[2,3-b]pyridin-4-yl)phenyl)amino)-N-(2,4-difluorophenyl)azetidine-1-carboxamide] is higher in IC50: 20 to 200 nM for the first, greater than 200 nM for the second. The first is the more potent here.

First: N#CC1(CC(=O)Nc2ccc(-c3cc(NC(=O)C4CC4)nc4[nH]ccc34)cc2)CC1 [Example 241, N-(4-(4-(2-(1-cyanocyclopropyl)acetamido)phenyl)-1H-pyrrolo[2,3-b]pyridin-6-yl)cyclopropanecarboxamide]
Second: C=CCS(=O)(=O)Oc1ccc(-c2cc(NC(=O)C3CC3)nc3[nH]ccc23)cc1 [Example 636, 4-(6-(cyclopropanecarboxamido)-1H-pyrrolo[2,3-b]pyridin-4-yl)phenyl prop-2-ene-1-sulfonate]
The IC50 of the first is higher: 20 to 200 nM for the first, less than 20 nM for the second.

Compared with `N#C[C@H]1CCCN1C(=O)CN1C2CCC1CN(c1cc(NC(=O)C3CC3)nc3[nH]ccc13)C2` [Example 703, N-(4-(8-(2-((R)-2-cyanopyrrolidin-1-yl)-2-oxoethyl)-3,8-diazabicyclo[3.2.1]octan-3-yl)-1H-pyrrolo[2,3-b]pyridin-6-yl)cyclopropanecarboxamide], `N#CCCCC(=O)N1CC=C(c2cc(NC(=O)C3CC3)nc3[nH]ccc23)CC1` [Example 265, N-(4-(1-(4-cyanobutanoyl)-1,2,3,6-tetrahydropyridin-4-yl)-1H-pyrrolo[2,3-b]pyridin-6-yl)cyclopropanecarboxamide] is lower in IC50: greater than 200 nM for the first, less than 20 nM for the second. The second is the more potent here.

`C[C@@H]1CN(C(=O)C(=Cc2ccccc2)CC#N)CC=C1c1cc(NC(=O)C2CC2)nc2[nH]ccc12` [Example 404, (S)—N-(4-(1-(2-(cyanomethyl)-3-phenylacryloyl)-3-methyl-1,2,3,6-tetrahydropyridin-4-yl)-1H-pyrrolo[2,3-b]pyridin-6-yl)cyclopropanecarboxamide] and `CC1CN(C(=O)Cc2ccccc2)CC=C1c1cc(NC(=O)C2CC2)nc2[nH]ccc12` (stereo not drawn) [Example 365, N-(4-(3-methyl-1-(2-phenylacetyl)-1,2,3,6-tetrahydropyridin-4-yl)-1H-pyrrolo[2,3-b]pyridin-6-yl)cyclopropanecarboxamide] fall in the same range of IC50: 20 to 200 nM for the first, 20 to 200 nM for the second.

First: N#CCC(=O)N1CCN(c2nc(NC(=O)C3CC3)nc3[nH]ccc23)CC1 [Example 687, N-(4-(4-(2-cyanoacetyl)piperazin-1-yl)-7H-pyrrolo[2,3-d]pyrimidin-2-yl)cyclopropanecarboxamide]
Second: C[C@@H]1CN(C(=O)CCl)CC=C1c1cc(NC(=O)C2CC2)nc2[nH]ccc12 [Example 401, (S)—N-(4-(1-(2-chloroacetyl)-3-methyl-1,2,3,6-tetrahydropyridin-4-yl)-1H-pyrrolo[2,3-b]pyridin-6-yl)cyclopropanecarboxamide]
The IC50 of the first is higher: greater than 200 nM for the first, 20 to 200 nM for the second. The second is the more potent here.

`CC1CN(C(=O)C(C#N)Cc2ccc(F)cc2)CC=C1c1cc(NC(=O)C2CC2)nc2[nH]ccc12` (stereo not drawn) [Example 359, N-(4-(1-(2-cyano-3-(4-fluorophenyl)propanoyl)-3-methyl-1,2,3,6-tetrahydropyridin-4-yl)-1H-pyrrolo[2,3-b]pyridin-6-yl)cyclopropanecarboxamide] and `CC1CN(C(=O)c2ccc(S(C)(=O)=O)cc2)CC=C1c1cc(NC(=O)C2CC2)nc2[nH]ccc12` (stereo not drawn) [Example 354, N-(4-(3-methyl-1-(4-(methylsulfonyl)benzoyl)-1,2,3,6-tetrahydropyridin-4-yl)-1H-pyrrolo[2,3-b]pyridin-6-yl)cyclopropanecarboxamide] fall in the same range of IC50: 20 to 200 nM for the first, 20 to 200 nM for the second.

`O=C(Nc1cc(-c2ccc(NS(=O)(=O)C3CCCCC3)c(F)c2)c2cc[nH]c2n1)C1CC1` [Example 68, N-(4-(4-(cyclohexanesulfonamido)-3-fluorophenyl)-1H-pyrrolo[2,3-b]pyridin-6-yl)cyclopropanecarboxamide] and `CCS(=O)(=O)Nc1ccc(-c2cc(NC(=O)C3CC3)nc3[nH]ccc23)cc1F` [Example 1, N-(4-(4-(ethylsulfonamido)-3-fluorophenyl)-1H-pyrrolo[2,3-b]pyridin-6-yl)cyclopropanecarboxamide] cannot be ordered by IC50: less than 20 nM for the first, less than 20 nM for the second.

Compared with `CC1CN(C(=O)c2ccnc(O)c2)CC=C1c1cc(NC(=O)C2CC2)nc2[nH]ccc12` (stereo not drawn) [Example 383, N-(4-(1-(2-hydroxyisonicotinoyl)-3-methyl-1,2,3,6-tetrahydropyridin-4-yl)-1H-pyrrolo[2,3-b]pyridin-6-yl)cyclopropanecarboxamide], `O=C(Nc1cc(C2=CCN(C(=O)n3ccnc3)CC2)c2cc[nH]c2n1)C1CC1` [Example 451, N-(4-(1-(1H-imidazole-1-carbonyl)-1,2,3,6-tetrahydropyridin-4-yl)-1H-pyrrolo[2,3-b]pyridin-6-yl)cyclopropanecarboxamide] is lower in IC50: greater than 200 nM for the first, 20 to 200 nM for the second. The second is the more potent here.

First: O=C(Nc1cc(-c2ccc(C(F)(F)C(=O)N3CCS(=O)(=O)CC3)cc2)c2cc[nH]c2n1)C1CC1 [Example 571, N-(4-(4-(2-(1,1-dioxidothiomorpholino)-1,1-difluoro-2-oxoethyl)phenyl)-1H-pyrrolo[2,3-b]pyridin-6-yl)cyclopropanecarboxamide]
Second: O=C(Nc1cc(C2=CCN(C(=O)CC(F)(F)F)C2)c2cc[nH]c2n1)C1CC1 [Example 428, N-(4-(1-(3,3,3-trifluoropropanoyl)-2,5-dihydro-1H-pyrrol-3-yl)-1H-pyrrolo[2,3-b]pyridin-6-yl)cyclopropanecarboxamide]
The IC50 of the first is lower: 20 to 200 nM for the first, greater than 200 nM for the second.

First: CCc1cc(-c2cc(NC(=O)C3CC3)[n+]([O-])c3[nH]ccc23)ccc1NS(=O)(=O)CC [Example 135, 6-(cyclopropanecarboxamido)-4-(3-ethyl-4-(ethylsulfonamido)phenyl)-1H-pyrrolo[2,3-b]pyridine 7-oxide]
Second: O=C(Nc1cc(-c2ccc(NCc3ccccc3)cc2)c2cc[nH]c2n1)C1CC1 [Example 472, N-(4-(4-(benzylamino)phenyl)-1H-pyrrolo[2,3-b]pyridin-6-yl)cyclopropanecarboxamide]
The IC50 of the first is lower: 20 to 200 nM for the first, greater than 200 nM for the second. The first is the more potent here.
